Data on 8 compounds can be found in publication PMC10762177, “Novel betulin derivatives as multidrug reversal agents targeting P-glycoprotein” (Scientific Reports, 2024).

Entries after “also recorded” stand apart in the source; their conditions may differ. Like-named read-outs stand apart in the source and are kept apart here.

The test system of data set [1] is K562/Dox cells. The data set can be described thus: Doxorubicin resistance reversal assay in K562/Dox (MTT). Particulars: for FR (fold reversal): Dox co-administered. The procedure:
(§1) Simultaneously, viability controls were run with no addition of the dissolution solvent. The cells were incubated at 37 °C at 5% CO2 for 48 h and the same protocol described above was followed. The potency of the compounds was established by means of the fold reversal (FR) values calculated from dividing the IC50 of Dox alone by the IC50 of Dox with different concentrations of each compound tested.

For data set [2], the target named is T1, P-gp (Homo sapiens, UniProt P08183). The data set can be described thus: Doxorubicin intracellular accumulation assay in K562/Dox (flow cytometry).
T1 sequence (P08183 whole entry): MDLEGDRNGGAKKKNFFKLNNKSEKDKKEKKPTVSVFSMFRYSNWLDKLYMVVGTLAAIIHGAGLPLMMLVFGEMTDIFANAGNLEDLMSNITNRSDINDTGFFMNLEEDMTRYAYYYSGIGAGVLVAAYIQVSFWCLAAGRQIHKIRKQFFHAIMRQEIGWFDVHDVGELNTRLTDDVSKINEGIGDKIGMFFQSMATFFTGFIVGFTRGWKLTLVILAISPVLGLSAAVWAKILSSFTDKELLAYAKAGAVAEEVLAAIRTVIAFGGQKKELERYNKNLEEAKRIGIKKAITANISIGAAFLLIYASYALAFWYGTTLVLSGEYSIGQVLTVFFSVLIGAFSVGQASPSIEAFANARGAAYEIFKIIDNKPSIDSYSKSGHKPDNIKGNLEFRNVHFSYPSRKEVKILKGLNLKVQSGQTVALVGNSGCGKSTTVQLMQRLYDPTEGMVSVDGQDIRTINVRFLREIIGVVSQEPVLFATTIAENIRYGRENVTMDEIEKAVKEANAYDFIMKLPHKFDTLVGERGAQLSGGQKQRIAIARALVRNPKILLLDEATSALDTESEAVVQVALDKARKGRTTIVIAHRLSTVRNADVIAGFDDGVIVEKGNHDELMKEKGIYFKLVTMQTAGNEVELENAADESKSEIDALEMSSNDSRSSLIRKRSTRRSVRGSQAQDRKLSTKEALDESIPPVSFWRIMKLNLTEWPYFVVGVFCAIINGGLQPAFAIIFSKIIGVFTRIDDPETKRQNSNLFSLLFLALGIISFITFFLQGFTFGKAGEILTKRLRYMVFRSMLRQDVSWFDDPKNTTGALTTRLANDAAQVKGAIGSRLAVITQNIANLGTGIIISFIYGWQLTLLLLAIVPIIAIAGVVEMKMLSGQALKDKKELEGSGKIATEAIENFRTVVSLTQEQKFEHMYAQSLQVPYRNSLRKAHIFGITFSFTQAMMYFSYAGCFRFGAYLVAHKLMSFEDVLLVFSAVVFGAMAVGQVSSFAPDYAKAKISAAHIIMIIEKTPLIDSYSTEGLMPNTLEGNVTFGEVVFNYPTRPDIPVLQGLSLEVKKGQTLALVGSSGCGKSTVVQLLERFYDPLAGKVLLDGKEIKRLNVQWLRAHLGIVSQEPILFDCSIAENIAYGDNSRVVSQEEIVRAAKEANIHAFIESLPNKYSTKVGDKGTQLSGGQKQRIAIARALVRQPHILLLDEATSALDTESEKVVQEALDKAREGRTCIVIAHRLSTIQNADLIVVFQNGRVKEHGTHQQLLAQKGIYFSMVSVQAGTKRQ
Data set [3] relates to K562/Dox cells. The data set can be described thus: MTT colorimetric assay, cytotoxicity on resistant K562/Dox. The class given is cell-based. Particulars: K562/Dox, MTT; for toxicity: 50 μM; for IC50: 48 h, read-out: IC50 K562/Dox. The procedure:
This colorimetric technique is based on the ability of viable cells to capture MTT and reduce it through the mitochondrial enzyme succinic dehydrogenase to its insoluble form, formazan crystals. The target compounds dissolved in DMSO (0.5% v/v as final concentration which was non-toxic to cells) at a maximum concentration of 50 µM were exposed to 5 × 10^4 cells distributed in a 96-well plate and incubated for 48 h. […] After this time, the plate was centrifuged at 2000 rpm for 10 min, and 100 µL of DMSO was added to dissolve the formazan crystals formed. Absorbance (Abs) was read at a wavelength of 595 nm in an iMark microplate reader (Bio-Rad, USA). The percentages of cytotoxicity were determined as compared to DMSO treated control cells, which were considered 100% viable as showing the same level of growth as the untreated cells.

For a further data set, the system named is erythrocytes. The experiment in a line: Erythrocyte hemolysis assay. The class given is cell-based, human. Particulars: maximum tested concentration of 50 µM, 1 h. As for the experimental part: For the erythrocyte hemolysis assay, the red blood cell suspension was obtained from fresh heparinized blood collected from healthy human volunteer donors, without receiving any treatment. The blood sample was centrifuged at 2,500 rpm for 10 min at 4 °C. The supernatant was discarded, and the red blood cell pellet was subjected to two consecutive washes with sterile PBS, using the same centrifugation conditions. An aliquot of the pellet obtained was resuspended in PBS (3% v/v). The compounds were incubated at decreasing concentrations starting from 50 µM with the suspension at 37 °C for 1 h. Controls with 1% DMSO and no solvent were included.

Data set [4] deals with K562 cells. The data set can be described thus: Rhodamine 123 intracellular accumulation assay in K562 (flow cytometry). (In general: In flow cytometry, cells or beads pass a laser one at a time.)
Data set [5] in a line: Cytotoxicity on peripheral blood mononuclear cells (MTT). The class given is cell-based, human. Particulars: human. As for the experimental part: . PBMC were isolated by the Ficoll-Hypaque density gradient centrifugation technique of fresh heparinized blood from healthy human volunteers. The protocol was previously approved by the Catholic University of Córdoba Research Ethics Board. Signed informed consents were obtained from donors. All methods were performed in accordance with the relevant guidelines and regulations. Briefly, 1 × 10^5 cells/well in a 96-well plate were incubated with 10 µg/mL PHA, in the presence of the corresponding concentrations of the compounds or 0.5% v/v DMSO (negative control) for 48 h, and processed as above described for the MTT method. The percentages of inhibition on cell proliferation were determined by comparison with negative controls, and the corresponding IC50 values were calculated from the best fit of the concentration-dependent inhibition curves in GraphPad Prism 7.

The subject of data set [6] is K562 cells. The experiment in a line: MTT colorimetric assay, cytotoxicity on sensitive K562. The class given is cell-based. The following applies: for toxicity: 50 μM, K562, MTT; for IC50: MTT, 48 h, K562. As for the experimental part: This colorimetric technique is based on the ability of viable cells to capture MTT and reduce it through the mitochondrial enzyme succinic dehydrogenase to its insoluble form, formazan crystals. […] After this time, the plate was centrifuged at 2000 rpm for 10 min, and 100 µL of DMSO was added to dissolve the formazan crystals formed. Absorbance (Abs) was read at a wavelength of 595 nm in an iMark microplate reader (Bio-Rad, USA).
A general note: Formazan colour is commonly taken as a measure of viable cells.

Data set [7] relates to K562 cells. The data set can be described thus: Doxorubicin intracellular accumulation assay in K562 (flow cytometry). The following applies: K562, versus negative control.
The subject of data set [8] is K562 cells. The data set can be described thus: Doxorubicin resistance reversal assay in K562 (MTT). The class given is cell-based. The following applies: K562, 1.56 µM. The procedure: as §1
The target of data set [9] is T1, P-gp. The experiment in a line: Rhodamine 123 intracellular accumulation assay in K562/Dox (flow cytometry). The following applies: for FAR (fluorescence activity ratio): Rho123, K562/Dox.
For data set [10], the target named is T1, P-gp.
Data set [11] addresses T1, P-gp. Also on record: MDR phenotype mainly characterized by the overexpression of ABCB1/P-gp; endogenous in cells; host or cells: K562/Dox (formerly Lucena 1), drug-selected and kept under 60 nM Dox; parental K562 used as the low-P-gp control. Particulars: cited from earlier work.

One may read the viability as a per cent measure of how many cells are alive, often set against a control.

In the case of `C=C(C)[C@@H]1CC[C@]2(COC(=O)N3CCN(C)CC3)CC[C@]3(C)[C@H](CC[C@@H]4[C@@]5(C)CC[C@H](O)C(C)(C)[C@@H]5CC[C@]43C)[C@@H]12` [Compound 6i], the “potency for restoring the cytotoxicity of Dox relative to compound 1 (times)” value with K562/Dox cells [1] was “nearly twice”. The “MEC, Dox resistance reversal” value in the data set on K562/Dox cells [1] (K562/Dox) is 0.19 µM. For the same compound, the “FR (fold reversal)” value with K562/Dox cells [1] (K562/Dox, 0.19 µM) is given as 1.39 ± 0.07; with K562/Dox cells [1] (K562/Dox, 0.78 µM), 1.63 ± 0.06; in the data set with K562/Dox cells [1] (K562/Dox, 1.56 µM) it was 2.69 ± 0.39. The “MEC, Dox accumulation” value at P-gp [2] came out at 0.098 µM. The “FAR, Dox accumulation” value at P-gp [2] (25 µM) turned out to be 1.27 ± 0.03. Also, the toxicity result in the data set with K562/Dox cells [3] and in the data set on K562 cells [6] was “more than 55%” throughout. Further, the IC50 in the data set on K562/Dox cells [3] (Homo sapiens, K562, 48 h) was 33.91 ± 0.09 µM; in the data set on K562 cells [6] (Homo sapiens, K562, 48 h), 19.1 µM; with K562 cells [6], 19.1 ± 0.87 µM. In addition, in the data set on erythrocytes, the “erythrocyte hemolysis” value is “devoid of toxic effects; also recorded: Neither compound induced erythrocyte hemolysis”. In the data set on K562 cells [4] (K562, maximum concentration assayed), the “Rho123 accumulation in K562” value was “did not increase Rho123 accumulation”. The compound further displayed an IC50 at 48 h in data set [5] of 26.4 ± 2.88 µM. In addition, the viability at 48 h, 50 µM in data set [5] came out at 64%. In the data set with K562 cells [7], the “Dox accumulation in K562” value is “did not increase Dox accumulation”. The “reversal effect on parental K562” value with K562 cells [8] was “did not show a reversal effect”. For the same compound, the “FAR (fluorescence activity ratio)” value at P-gp [9] (0.19 µM) is listed as 1.08 ± 0.05; on P-gp [9] (0.78 µM), 1.30 ± 0.06; on P-gp [9] (1.56 µM), 1.41 ± 0.14; at P-gp [9] (3.12 µM), 1.71 ± 0.06; at P-gp [9] (6.25 µM), 2.04 ± 0.05. Moreover, the “MEC (minimum effective concentration)” value on P-gp [9] (Rho123 accumulation, K562/Dox) was 0.39 µM. The “dose-dependent behavior, b” value on P-gp [9] (Rho123 accumulation, K562/Dox) was found to be 40.14.

For the compound `C=C(C)[C@@H]1CC[C@]2(COC(=O)NCCN3CCN(C(=O)OC(C)(C)C)CC3)CC[C@]3(C)[C@H](CC[C@@H]4[C@@]5(C)CC[C@H](O)C(C)(C)[C@@H]5CC[C@]43C)[C@@H]12` [Compound 6j], the IC50 is greater than 50 µM in the data set with K562/Dox cells [3] (Homo sapiens, K562, 48 h) and greater than 50 µM with K562 cells [6] (Homo sapiens, K562, 48 h). For the same compound, the “FAR (fluorescence activity ratio)” value came out at 1.08 ± 0.04 on P-gp [9] (6.25 µM), 1.25 ± 0.02 at P-gp [9] (12.50 µM), 1.68 ± 0.03 at P-gp [9] (25 µM) and 2.57 ± 0.11 at P-gp [9] (50 µM). For the same compound, the “MEC (minimum effective concentration)” value on P-gp [9] (Rho123 accumulation, K562/Dox) amounted to 12.50 µM.

Regarding `C=C(C)[C@@H]1CC[C@]2(COC(=O)NCCN3CCNCC3)CC[C@]3(C)[C@H](CC[C@@H]4[C@@]5(C)CC[C@H](O)C(C)(C)[C@@H]5CC[C@]43C)[C@@H]12` [Compound 6k], the toxicity result in the data set on K562/Dox cells [3] and in the data set with K562 cells [6] was “more than 55%” throughout. Further, the IC50 came to 27 ± 1.34 µM in the data set with K562/Dox cells [3] (Homo sapiens, K562, 48 h); 9.4 µM in the data set with K562 cells [6] (Homo sapiens, K562, 48 h); 9.44 ± 0.08 µM in the data set on K562 cells [6]. The “FAR (fluorescence activity ratio)” value on P-gp [9] (0.78 µM) is 1.03 ± 0.17; on P-gp [9] (1.56 µM), 1.35 ± 0.08; on P-gp [9] (3.12 µM), 1.48 ± 0.07; at P-gp [9] (6.25 µM), 2.24 ± 0.24. In addition, at P-gp [9] (Rho123 accumulation, K562/Dox), the “MEC (minimum effective concentration)” value amounted to 1.56 µM.

With `C=C(C)[C@@H]1CC[C@]2(COC(=O)NCc3ccc(N4CCN(C)CC4)cc3)CC[C@]3(C)[C@H](CC[C@@H]4[C@@]5(C)CC[C@H](O)C(C)(C)[C@@H]5CC[C@]43C)[C@@H]12` [Compound 6l], the toxicity result in the data set on K562/Dox cells [3] and with K562 cells [6] was “more than 55%” in each case. For the same compound, the IC50 is 17.4 ± 0.59 µM with K562/Dox cells [3] (Homo sapiens, K562, 48 h) and 8 ± 1.98 µM in the data set with K562 cells [6] (Homo sapiens, K562, 48 h). Moreover, the “FAR (fluorescence activity ratio)” value on P-gp [9] (3.12 µM) worked out at 1.08 ± 0.05; on P-gp [9] (6.25 µM), 1.30 ± 0.04; at P-gp [9] (12.50 µM), 1.55 ± 0.03. Further, on P-gp [9] (Rho123 accumulation, K562/Dox), the “MEC (minimum effective concentration)” value turned out to be 6.25 µM.

Consider `C=C(C)[C@@H]1CC[C@]2(COC(=O)N3CCc4cc(OC)c(OC)cc4C3)CC[C@]3(C)[C@H](CC[C@@H]4[C@@]5(C)CC[C@H](O)C(C)(C)[C@@H]5CC[C@]43C)[C@@H]12` [Compound 6m], for which the IC50 was greater than 50 µM in the data set on K562/Dox cells [3] (Homo sapiens, K562, 48 h) and greater than 50 µM with K562 cells [6] (Homo sapiens, K562, 48 h). In addition, the “FAR (fluorescence activity ratio)” value is given as 1.03 ± 0.12 on P-gp [9] (1.56 µM); 1.17 ± 0.03 on P-gp [9] (3.12 µM); 1.27 ± 0.09 at P-gp [9] (6.25 µM); 1.32 ± 0.14 at P-gp [9] (12.50 µM); 1.52 ± 0.09 on P-gp [9] (25 µM); 2.06 ± 0.15 at P-gp [9] (50 µM). Besides, the “MEC (minimum effective concentration)” value on P-gp [9] (Rho123 accumulation, K562/Dox) is listed as 3.12 µM.

On to `COc1cc2c(cc1OC)CN(CCc1ccc(NC(=O)c3cc(OC)c(OC)cc3NC(=O)c3cnc4ccccc4c3)cc1)CC2` [Tariquidar, tariquidar, reference compound], for which the “MEC, Dox accumulation” value at P-gp [2] worked out at 0.39 µM. Also, the IC50 turned out to be 2.2 µM in the data set on K562/Dox cells [3] (Homo sapiens, K562, 48 h); 2.25 ± 0.28 µM in the data set with K562/Dox cells [3]; 2.4 µM with K562 cells [6] (Homo sapiens, K562, 48 h); 2.38 ± 0.32 µM in the data set with K562 cells [6]. The “FAR (fluorescence activity ratio)” value at P-gp [10] (1.56 µM) was 1.22 ± 0.05; at P-gp [10] (3.12 µM), 1.14 ± 0.03; in the data set with K562 cells [4] (Rho123, K562, 3.12 µM), 0.82 ± 0.11; at P-gp [9] (0.78 µM), 1.12 ± 0.03. Moreover, the “MEC (minimum effective concentration)” value at P-gp [9] (Rho123 accumulation, K562/Dox) was 0.78 µM.

With `C=C(C)[C@@H]1CC[C@]2(C)CC[C@]3(C)[C@H](CC[C@@H]4[C@@]5(C)CC[C@H](O)C(C)(C)[C@@H]5CC[C@]43C)[C@@H]12` [lupeol], at P-gp [11], the “effective concentration, P-gp inhibition” value is on record as 100 µM.

Consider `CC1(C)CC[C@]2(C(=O)O)CC[C@]3(C)C(=CC[C@@H]4[C@@]5(C)CC[C@H](O)C(C)(C)[C@@H]5CC[C@]43C)[C@@H]2C1` [oleanolic acid], for which, on P-gp [11], the “effective concentration, P-gp inhibition” value was 2 µM.
